In BindingDB's records for doi:10.1021/jm00128a026 (Roche Research Center, 1989) one finds IC50 data, which are given here for 41 molecules.

The first experiment deals with Platelet-activating factor receptor (Canis lupus familiaris). Put plainly: Inhibition of [3H]PAF binding to dog platelets.
In the case of `O=C(C=C(c1ccccc1)c1ccccc1)NCCCCc1cccnc1`, the IC50 came to 450 nM.
Still for that read-out and setting: to `CC[C@H](CCCc1cccnc1)NC(=O)/C=C/C=C(c1ccc(OC)cc1)c1ccc(OC)cc1` belongs 120 nM.
`COc1ccc(C(=C/C=C/C(=O)Nc2ccc(-c3cccnc3)cc2)c2ccc(OC)cc2)cc1` showed an IC50 of 10 nM.
Turning to `COc1ccc(C(=C/C=C/C(=O)NCCCCc2cccnc2)c2ccc(OC)c(OC)c2)cc1OC`, the concentration for half-maximal inhibition (IC50) was found to be 55 nM.
As to `CCCCC/C(=C/C=C/C(=O)N[C@H](C)CCCc1cccnc1)c1ccc(OC)cc1`, the half-maximal inhibitory concentration (IC50) was 10 nM.
With `COc1ccc(/C(=C/C=C/C(=O)N[C@H](C)CCCc2cccnc2)c2ccccc2)cc1`, the concentration for half-maximal inhibition (IC50) came to 2 nM.
Regarding `COc1ccc(C(=C/C=C/C(=O)NC(C)(C)CCCc2cccnc2)c2ccc(OC)cc2)cc1`, the IC50 was 85 nM.
`COc1ccc(C(=C/C=C/C(=O)Nc2ccc(Cc3cccnc3)cc2)c2ccc(OC)cc2)cc1` showed an IC50 of 250 nM.
Same read-out and setting: the same measure for `CCC/C(=C\C=C\C(=O)N[C@H](C)CCCc1cccnc1)c1ccc(OC)cc1`: 50 nM.
Still for that read-out and setting: the same measure for `O=C(CCCCC=C(c1ccccc1)c1ccccc1)NCCCCc1cccnc1`: 550 nM.
`COc1cccc(/C(=C\C=C\C(=O)NCCCCc2cccnc2)c2cccc(F)c2)c1` showed an IC50 of 25 nM.
Molecule `COc1ccccc1C(=C/C=C/C(=O)NCCCCc1cccnc1)c1ccccc1OC` displayed an IC50 of 40 nM.
Molecule `O=C(C/C=C/C=C(c1ccccc1)c1ccccc1)NCCCCc1cccnc1` displayed an IC50 of 55 nM.
Molecule `Cc1ccc(C(=C/C=C/C(=O)N[C@H](C)CCCc2cccnc2)c2ccc(C)cc2)cc1` showed an IC50 of 250 nM.
Same read-out and setting: the same measure for `COc1ccc(/C(=C\C=C\C(=O)N[C@H](C)CCCc2cccnc2)C2CCCCC2)cc1`: 20 nM.
The molecule `O=C(/C=C/C=C(c1cccc(F)c1)c1cccc(F)c1)NCCCCc1cccnc1` showed an IC50 of 20 nM.
On to `COc1ccc(/C(=C/C=C/C(=O)N[C@H](C)CCCc2cccnc2)C2CCCCC2)cc1`, for which the IC50 was 20 nM.
For `O=C(CCC=C(c1ccccc1)c1ccccc1)NCCCCc1cccnc1`, the concentration for half-maximal inhibition (IC50) was 100 nM.
Consider `COc1ccc(C(=C/C=C/C(=O)N[C@@H](CCCc2cccnc2)C2CCCC2)c2ccc(OC)cc2)cc1`, for which the IC50 was greater than 1000 nM.
`O=C(/C=C\C=C(c1ccccc1)c1ccccc1)NCCCCc1cccnc1`: the IC50 was 400 nM.
Turning to `CCC[C@H](CCCc1cccnc1)NC(=O)/C=C/C=C(c1ccc(OC)cc1)c1ccc(OC)cc1`, the IC50 is greater than 1000 nM.
In the case of `COc1ccc(C(=C/C=C/C(=O)NCCCCc2cccnc2)c2ccc(OC)cc2)cc1`, the IC50 was 25 nM.
The molecule `O=C(/C=C/C=C(c1ccc(F)cc1)c1ccc(F)cc1)NCCCCc1cccnc1` registered an IC50 of 40 nM.
Molecule `CCCC[C@H](CCCc1cccnc1)NC(=O)/C=C/C=C(c1ccc(OC)cc1)c1ccc(OC)cc1` yielded an IC50 greater than 1000 nM.
For `COc1ccc(C(=C/C=C/C(=O)N[C@@H](CCCc2cccnc2)C2CC2)c2ccc(OC)cc2)cc1`, the IC50 came out at 60 nM. In other words, the double-digit nanomolar range.
As to `COc1cccc(C(=C/C=C/C(=O)NCCCCc2cccnc2)c2cccc(OC)c2)c1`, the IC50 amounted to 2 nM.
Same read-out and setting: the same measure for `CCCC/C(=C\C=C\C(=O)N[C@H](C)CCCc1cccnc1)c1ccc(OC)cc1`: 14 nM.
For the molecule `COc1ccc(C(=C/C=C/C(=O)N[C@H](C)CCCc2cccnc2)c2ccc(OC)c(OC)c2)cc1OC`, the IC50 turned out to be 50 nM.
Regarding `COc1ccc(/C=C/C=C/C(=O)N[C@H](C)CCCc2cccnc2)cc1`, the IC50 came to 30 nM.
Same read-out and setting: to `COc1cccc(C(=C/C=C/C(=O)N[C@H](C)CCCc2cccnc2)c2cccc(OC)c2)c1` belongs 35 nM.

The next experiment shares this target. Briefly: Inhibition of [3H]PAF binding to dog platelets. The source holds these as a separate data set.
Consider `CC[C@@H](CCCc1cccnc1)NC(=O)/C=C/C=C(c1ccc(OC)cc1)c1ccc(OC)cc1`, for which the IC50 came to 400 nM.
In turn, `COc1ccc(/C(=C/C=C/C(=O)N[C@H](C)CCCc2cccnc2)C(C)C)cc1` came in with a half-maximal inhibitory concentration (IC50) of 40 nM.
Molecule `COc1cccc(C(=C/C=C/C(=O)N[C@@H](C)CCCc2cccnc2)c2cccc(OC)c2)c1` gave an IC50 of 300 nM.
Consider `COc1ccc(C(=C/C=C/C(=O)NC(C)CCCc2cccnc2C)c2ccc(OC)cc2)cc1` (stereo unspecified), for which the 50% inhibitory concentration (IC50) is 30 nM.
Consider `COc1cccc(/C(=C/C=C/C(=O)NCCCCc2cccnc2)c2cccc(F)c2)c1`, for which the 50% inhibitory concentration (IC50) was 40 nM.
The molecule `COc1ccc(/C(C)=C/C=C/C(=O)N[C@H](C)CCCc2cccnc2)cc1` returned an IC50 of 25 nM.
In the case of `COc1ccc(C(=C/C=C/C(=O)NCCOCc2cccnc2)c2ccc(OC)cc2)cc1`, the IC50 stood at 250 nM. Against the preceding molecule, the IC50 is about 10-fold higher.
In the case of `CC/C(=C\C=C\C(=O)N[C@H](C)CCCc1cccnc1)c1ccc(OC)cc1`, the IC50 was found to be 30 nM.
For the molecule `O=C(/C=C/C=C(c1ccc(Cl)cc1)c1ccc(Cl)cc1)NCCCCc1cccnc1`, the IC50 was determined as 60 nM.
`CCCCCCCC/C(=C\C=C\C(=O)N[C@H](C)CCCc1cccnc1)c1ccc(OC)cc1` yielded a 50% inhibitory concentration (IC50) of 5 nM.
As for `COc1ccc(/C(=C\C=C\C(=O)N[C@H](C)CCCc2cccnc2)c2ccccc2)cc1`, the 50% inhibitory concentration (IC50) was determined as 4 nM.
